The target in data set [1] is T1, M1 muscarinic receptor (Homo sapiens, UniProt P11229).
T1 sequence (P11229 1-460): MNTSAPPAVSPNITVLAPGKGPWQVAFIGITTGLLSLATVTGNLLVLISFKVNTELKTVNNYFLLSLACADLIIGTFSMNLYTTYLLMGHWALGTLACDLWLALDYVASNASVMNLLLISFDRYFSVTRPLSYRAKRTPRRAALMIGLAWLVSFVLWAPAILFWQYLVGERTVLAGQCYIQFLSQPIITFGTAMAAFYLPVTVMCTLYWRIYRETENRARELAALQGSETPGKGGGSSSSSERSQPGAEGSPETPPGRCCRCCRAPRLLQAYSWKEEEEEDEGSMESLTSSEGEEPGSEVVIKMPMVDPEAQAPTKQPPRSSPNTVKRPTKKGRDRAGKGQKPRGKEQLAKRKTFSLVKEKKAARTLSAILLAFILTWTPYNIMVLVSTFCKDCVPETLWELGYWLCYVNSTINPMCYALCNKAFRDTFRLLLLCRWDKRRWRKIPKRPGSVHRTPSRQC
Also noted: purchased PerkinElmer, Inc., Wellesley, Mass; host or cells: CHO cells. The settings on record: reference compounds; read-out: Ki of reference compounds, M1 binding assay; cited from earlier work.

The test system of the next data set is Wistar rats. The experiment in a line: Acetic acid-induced abdominal spasm test in the rat. The conditions noted are these: oral 100 mg/kg. Format: in vivo. As for the experimental part: (§1) The objective of this example was to determine the analgesic activity of HY-2901 (Also referred to herein as Compound 49a) following oral administration. Analgesic activity was assessed abdominal spasm test in the rat and mouse. Analgesic activity is also assessed using the tail clip test in the mouse, tail flick test in the rat, Randall-Selitto test in the rat and comparisons are made with a vehicle control group. Reference compounds ASA (acetylsalicylic acid) and morphine are also included for comparison.
(§2) The tail clip and tail flick test provide useful information about the central analgesic activity of the test article. The Randall-Selitto test provides information on the compound's ability to modify a hyperalgesic state and the abdominal spasm test provides information on the peripheral analgesic activity of the test article. The test article is administered by oral gavage, this being the intended clinical route of administration. The dose levels employed are expected to encompass the efficacy dose and provide an adequate safety margin.
(§3) All formulations were prepared on each day of dosing. The test article (HY-2901) was formulated in 0.25% (w/v) MC at the highest concentration required. Lower doses were obtained by serial dilution of the highest concentration using 0.25% (w/v) MC. The reference compound, acetylsalicylic acid, was formulated in 0.25% (w/v) MC at the required concentrations. Brewer's yeast was formulated in water for injection at the required concentration. Acetic acid was diluted with water for injection to provide the required concentration for administration.
(§4) An adequate number of male Crl:CD-I(ICR)BR mice and Wistar rats were obtained from Charles River (UK) Ltd., Margate, Kent. The mice were approximately 4 weeks of age and weigh between 18 and 22 g on arrival. The rats were approximately 5 weeks of age and weigh between 150 and 170 g on arrival. The age and weight of the animals at the start of the study was documented in the raw data and final report,
Each animal received a single administration of vehicle, test article or reference compound by oral gavage, using a constant dose volume […]. Individual dose volumes were based on individual body weights obtained on the day of dosing.
Forty-five minutes following oral administration each animal received a 1 mL intraperitoneal injection of 1% acetic acid. Animals were immediately placed into individual observation chambers and the number of abdominal spasms elicited over the subsequent 25-minute period was recorded.

The next data set concerns Crl:CD-I(ICR)BR mice. The experiment in a line: Acetic acid-induced abdominal spasm test in the mouse. Format: in vivo. As for the experimental part: as §1, §2, §3, §4
Each animal received a single administration of vehicle, test article or reference compound by oral gavage, using a constant dose volume 10 mL/kg. Individual dose volumes were based on individual body weights obtained on the day of dosing.
Forty-five minutes following oral administration each animal received a 0.25 mL intraperitoneal injection of 0.5% acetic acid. Animals were immediately placed into individual observation chambers and the number of abdominal spasms elicited over the subsequent 25-minute period was recorded.

The subject of a further data set is adult male Wistar rats. The experiment in a line: SCORE-2000 sleep-wakefulness, locomotor activity and body temperature monitoring. Format: in vivo, rat.
The target in a further data set is T2, H1 histamine receptor (Bos taurus, UniProt P30546).
T2 construct: the receptors were obtained from bovine cerebellar membrane tissue; from tissue; host or cells: bovine cerebellar membranes
Put plainly: Histamine H1 competitive binding assay ([3H]pyrilamine). The settings on record: bovine receptor; read-out: H1 binding. Also noted: species or system bovine.

Data set [2] has as its target T1, M1 muscarinic receptor. The experiment in a line: Muscarinic M1 binding assay ([3H]-scopolamine, N-methyl chloride).
Another data set concerns the target T3, M2 muscarinic receptor (Homo sapiens, UniProt P08172).
T3 sequence (P08172 1-466): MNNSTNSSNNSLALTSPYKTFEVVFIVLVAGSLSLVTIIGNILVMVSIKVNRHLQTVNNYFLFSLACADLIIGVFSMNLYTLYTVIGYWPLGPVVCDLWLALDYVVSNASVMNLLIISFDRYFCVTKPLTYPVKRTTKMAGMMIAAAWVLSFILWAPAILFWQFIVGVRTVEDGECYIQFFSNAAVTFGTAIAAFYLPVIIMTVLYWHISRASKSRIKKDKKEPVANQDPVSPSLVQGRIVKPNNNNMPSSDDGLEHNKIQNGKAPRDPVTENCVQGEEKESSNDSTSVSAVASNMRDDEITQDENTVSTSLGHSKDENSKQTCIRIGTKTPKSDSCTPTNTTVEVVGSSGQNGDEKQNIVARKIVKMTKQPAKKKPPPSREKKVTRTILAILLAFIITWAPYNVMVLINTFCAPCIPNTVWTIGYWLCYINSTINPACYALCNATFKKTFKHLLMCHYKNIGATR
Put plainly: Muscarinic M2 binding assay.

Data set [3] addresses Adrenergic, Alpha 1, Non-selective. Put plainly: Table 12 panel: Adrenergic, Alpha 1. Format: binding. The conditions noted are these: read-out: α1 binding.
The target of data set [4] is Adrenergic, Alpha 2, Non-selective. The experiment in a line: Table 12 panel: Adrenergic, Alpha 2. Format: binding. The settings on record: read-out: α2 binding.
The target in another data set is human H1 receptor (Homo sapiens, UniProt P35367). Put plainly: H1(hR) binding (Table 28). Here is the method:
(§5) The comparative data is shown in Table 28, unless otherwise noted, binding was measured with the bovine receptors, H1(hR) is the human H1 receptor, 5HT2a (h) is the human 5HT2a receptor. Binding numbers are presented in nM values.

For the next data set, the target named is human 5HT2a receptor (Homo sapiens, UniProt P28223). The experiment in a line: 5HT2a (h) binding (Table 28).
In a further data set the target is Dopamine, D1 (UniProt P21728). Put plainly: Dopamine, D1 (human recombinant) binding assay.
Data set [5] concerns the target Dopamine, D1 (human recombinant) (UniProt P14416). The experiment in a line: Dopamine D2 binding assay (printed as D1 in b555). Here is the method:
In vitro binding assays are used to determine H1 binding (i.e., primary target binding) and M1, M2 and M3 binding (i.e., off target binding). […] Similar assays are performed with H1 and dopamine receptors (D1 and D2), and with H1 and adrenergic receptors (α1 and α2).
Dopamine, D1 (human recombinant) binding assay was performed according to published procedures. See, e.g., Jarvie, et al. J. Recept Res., 13(1–4): 573–90 (1993); and Gundlach, et al. Life Sciences, 35(19): 1981–8 (1984) with modifications

The next data set deals with 5HT2a (rat) (Rattus norvegicus, UniProt P14842). Put plainly: 5HT2a (rat) binding (Table 28). As for the experimental part:
as §5

The target in the next data set is hERG (Homo sapiens, UniProt Q12809).
For a further data set, the target named is M3 muscarinic receptor (Homo sapiens, UniProt P20309). Put plainly: Muscarinic M3 binding assay.

Values joined by “and” are separate entries in the source; they are usually repeats but may differ in a detail not shown here. Equal values may be shown once. Read-outs that look alike come from different tables or passages of the source.

T2 sequence (P30546 whole entry): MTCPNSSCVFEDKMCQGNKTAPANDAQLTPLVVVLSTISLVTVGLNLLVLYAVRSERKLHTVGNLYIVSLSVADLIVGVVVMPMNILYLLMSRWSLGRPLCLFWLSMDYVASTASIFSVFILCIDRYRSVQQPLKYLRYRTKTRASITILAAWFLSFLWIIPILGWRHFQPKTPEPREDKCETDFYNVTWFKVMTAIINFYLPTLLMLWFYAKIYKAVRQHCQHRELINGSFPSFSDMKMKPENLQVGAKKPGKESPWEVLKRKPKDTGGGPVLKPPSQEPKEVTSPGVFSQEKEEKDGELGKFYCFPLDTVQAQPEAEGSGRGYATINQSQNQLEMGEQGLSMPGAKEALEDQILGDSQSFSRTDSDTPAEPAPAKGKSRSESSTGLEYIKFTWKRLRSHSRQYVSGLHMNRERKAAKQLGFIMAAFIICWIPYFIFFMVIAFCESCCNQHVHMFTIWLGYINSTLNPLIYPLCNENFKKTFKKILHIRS
Chain of human 5HT2a receptor (P28223 whole entry): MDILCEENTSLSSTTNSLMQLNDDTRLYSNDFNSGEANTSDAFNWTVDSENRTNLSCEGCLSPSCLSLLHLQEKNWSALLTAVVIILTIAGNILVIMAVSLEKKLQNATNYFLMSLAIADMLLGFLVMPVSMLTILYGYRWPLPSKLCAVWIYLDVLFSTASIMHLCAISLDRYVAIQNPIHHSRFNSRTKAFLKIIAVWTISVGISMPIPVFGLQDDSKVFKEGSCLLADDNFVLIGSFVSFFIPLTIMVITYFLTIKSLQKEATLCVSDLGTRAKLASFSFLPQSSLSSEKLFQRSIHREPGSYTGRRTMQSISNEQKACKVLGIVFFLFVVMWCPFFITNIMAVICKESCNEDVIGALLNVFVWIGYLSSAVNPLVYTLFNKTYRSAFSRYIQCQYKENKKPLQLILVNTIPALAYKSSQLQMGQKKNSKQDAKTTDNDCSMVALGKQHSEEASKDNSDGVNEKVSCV
Chain of human H1 receptor (P35367 whole entry): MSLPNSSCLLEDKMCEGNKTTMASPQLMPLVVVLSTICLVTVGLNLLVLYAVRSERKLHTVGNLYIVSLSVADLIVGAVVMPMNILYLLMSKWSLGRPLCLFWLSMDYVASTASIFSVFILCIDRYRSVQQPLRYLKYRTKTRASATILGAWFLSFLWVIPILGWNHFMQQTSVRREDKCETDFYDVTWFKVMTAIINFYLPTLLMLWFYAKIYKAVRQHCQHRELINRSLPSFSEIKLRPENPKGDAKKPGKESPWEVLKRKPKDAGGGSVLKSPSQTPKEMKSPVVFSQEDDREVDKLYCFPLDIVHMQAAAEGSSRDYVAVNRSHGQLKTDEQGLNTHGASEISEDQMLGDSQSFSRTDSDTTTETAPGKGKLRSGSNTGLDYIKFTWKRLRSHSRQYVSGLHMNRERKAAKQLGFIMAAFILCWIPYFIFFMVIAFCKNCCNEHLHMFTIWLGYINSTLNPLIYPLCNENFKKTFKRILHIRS
Chain of hERG (Q12809 whole entry): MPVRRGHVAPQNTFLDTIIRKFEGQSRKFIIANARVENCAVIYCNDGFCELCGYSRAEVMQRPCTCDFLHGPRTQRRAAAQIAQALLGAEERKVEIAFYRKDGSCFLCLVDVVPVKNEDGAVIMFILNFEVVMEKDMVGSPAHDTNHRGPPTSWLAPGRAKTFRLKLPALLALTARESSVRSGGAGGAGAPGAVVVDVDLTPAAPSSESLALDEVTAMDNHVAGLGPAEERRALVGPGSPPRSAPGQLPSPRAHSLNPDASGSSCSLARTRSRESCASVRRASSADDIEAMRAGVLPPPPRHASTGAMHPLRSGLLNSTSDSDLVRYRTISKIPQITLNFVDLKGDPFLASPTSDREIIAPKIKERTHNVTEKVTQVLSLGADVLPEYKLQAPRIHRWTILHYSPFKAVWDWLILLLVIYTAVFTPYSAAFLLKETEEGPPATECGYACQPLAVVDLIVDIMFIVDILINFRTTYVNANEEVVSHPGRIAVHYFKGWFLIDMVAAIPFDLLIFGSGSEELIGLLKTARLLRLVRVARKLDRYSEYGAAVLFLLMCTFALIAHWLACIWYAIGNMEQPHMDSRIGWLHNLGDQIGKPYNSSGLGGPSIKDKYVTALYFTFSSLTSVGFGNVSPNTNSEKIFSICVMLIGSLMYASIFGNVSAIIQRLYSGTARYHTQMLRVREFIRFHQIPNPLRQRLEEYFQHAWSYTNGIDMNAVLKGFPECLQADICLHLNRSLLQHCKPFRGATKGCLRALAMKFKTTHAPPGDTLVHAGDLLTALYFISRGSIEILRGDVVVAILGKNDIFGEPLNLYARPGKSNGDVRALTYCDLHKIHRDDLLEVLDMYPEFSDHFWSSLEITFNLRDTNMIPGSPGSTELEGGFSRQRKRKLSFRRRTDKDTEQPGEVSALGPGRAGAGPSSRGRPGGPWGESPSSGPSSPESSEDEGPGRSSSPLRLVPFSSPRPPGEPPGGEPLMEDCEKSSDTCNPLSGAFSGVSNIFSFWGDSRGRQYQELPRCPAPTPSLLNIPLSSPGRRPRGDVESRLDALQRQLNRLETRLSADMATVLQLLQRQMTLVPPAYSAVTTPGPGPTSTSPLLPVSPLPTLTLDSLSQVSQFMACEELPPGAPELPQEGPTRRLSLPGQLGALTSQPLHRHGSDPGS
Chain of 5HT2a (rat) (P14842 whole entry): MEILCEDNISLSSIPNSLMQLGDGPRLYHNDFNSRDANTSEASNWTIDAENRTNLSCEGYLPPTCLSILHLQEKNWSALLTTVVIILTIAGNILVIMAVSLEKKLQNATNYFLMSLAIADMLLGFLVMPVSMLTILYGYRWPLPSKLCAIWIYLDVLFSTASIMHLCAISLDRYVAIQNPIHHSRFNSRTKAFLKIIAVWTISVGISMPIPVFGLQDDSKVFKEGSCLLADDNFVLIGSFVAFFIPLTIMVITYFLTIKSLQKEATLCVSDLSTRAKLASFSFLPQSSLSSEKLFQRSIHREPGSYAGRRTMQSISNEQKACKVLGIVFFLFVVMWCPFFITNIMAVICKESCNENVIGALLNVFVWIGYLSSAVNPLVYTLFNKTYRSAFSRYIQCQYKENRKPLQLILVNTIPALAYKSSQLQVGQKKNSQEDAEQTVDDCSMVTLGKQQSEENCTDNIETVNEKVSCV
Chain of M3 muscarinic receptor (P20309 whole entry): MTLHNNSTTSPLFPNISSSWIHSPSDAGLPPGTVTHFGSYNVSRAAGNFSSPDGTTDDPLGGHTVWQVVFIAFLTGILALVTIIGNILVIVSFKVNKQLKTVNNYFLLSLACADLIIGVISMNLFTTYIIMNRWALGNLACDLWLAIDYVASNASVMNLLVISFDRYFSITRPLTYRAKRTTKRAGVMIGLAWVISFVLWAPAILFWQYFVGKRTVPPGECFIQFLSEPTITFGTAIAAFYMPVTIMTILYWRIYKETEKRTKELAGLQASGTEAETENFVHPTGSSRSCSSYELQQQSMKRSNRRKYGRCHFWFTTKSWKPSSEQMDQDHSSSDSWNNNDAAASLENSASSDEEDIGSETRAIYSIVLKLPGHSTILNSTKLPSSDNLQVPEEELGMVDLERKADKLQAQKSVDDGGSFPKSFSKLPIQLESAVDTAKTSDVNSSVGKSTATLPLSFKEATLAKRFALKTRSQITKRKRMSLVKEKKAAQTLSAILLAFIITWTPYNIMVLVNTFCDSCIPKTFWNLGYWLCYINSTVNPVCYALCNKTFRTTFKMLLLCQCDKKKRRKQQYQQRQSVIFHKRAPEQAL

Regarding `C[N+]1(C)CCC(OC(=O)C(c2ccccc2)c2ccccc2)CC1` [4-DAMP methiodide], the Ki at M1 muscarinic receptor [1] was 0.27 nM.

`CC(=O)Oc1ccccc1C(=O)O` [ASA, acetylsalicylic acid, reference compound]: the “Group mean (=sd) number pf abdominal spasms recorded in a 25-minute period” value in the data set on Wistar rats was 1 ± 2.3. The “Number of abdominal spasms recorded in a 25-minute period, individual animal data” value in the data set with Wistar rats (100 mg/kg) is 0 (3×) and 1 (2×) and 6. Further, the “Group mean (±sd) number of abdominal spasms recorded in a 25 minute period” value in the data set on Crl:CD-I(ICR)BR mice (oral 100 mg/kg) is 29 ± 29.9. Further, the “Number of abdominal spasms recorded in a 25-minute period” value in the data set on Crl:CD-I(ICR)BR mice (oral, 100 mg/kg, individual animal data (animals 25-30)) is 17 and 8 and 45 and 82 and 1 and 23.

With `COc1ccc2c(c1)COc1ccc(F)cc1C2=C1CCN(CCC(=O)O)CC1` [Compound 10518], the “LUSB 3 mg/kg” value with adult male Wistar rats worked out at 6.7 ± 2.3. Further, the “LUSB 10 mg/kg” value with adult male Wistar rats is given as 7.9 ± 1.7. Also, in the data set with adult male Wistar rats, the “NREM cumul. 10 mpk” value is 46 ± 7. Also, the Ki at H1 histamine receptor was 52.3 nM; at M1 muscarinic receptor [2] it was > 10000 nM; on M2 muscarinic receptor, > 10000 nM; in [3], 2850 nM; in data set [4] it was > 10000 nM; on human H1 receptor, 35 nM. Further, the Ki is 422 nM on human 5HT2a receptor; > 10000 nM at Dopamine, D1; > 10000 nM in data set [5]; 197 nM at 5HT2a (rat). The molecule further returned an HERG on hERG (human, 10 µM, pH 7.4) of 3.90%.

Regarding `COc1ccc2c(c1)COc1ccc(F)cc1C2=C1CCN(CC2(C(=O)O)CC2)CC1` [Compound 10519], the Ki on H1 histamine receptor was 19.8 nM; on M1 muscarinic receptor [2] it was > 10000 nM; on M2 muscarinic receptor, > 10000 nM; at M3 muscarinic receptor, > 10000 nM; in [3] it was > 10000 nM; in [4], > 10000 nM. Moreover, the Ki is 34 nM at human H1 receptor; 541 nM on human 5HT2a receptor; > 10000 nM at Dopamine, D1; 56 nM at 5HT2a (rat). The same molecule registered an HERG at hERG of 6.10%.

On to `COc1ccc2c(c1)COc1ccc(F)cc1C2=C1CCN(CCCC(=O)O)CC1` [Compound 10520], for which the “LUSB 3 mg/kg” value with adult male Wistar rats was 4.9 ± 1.7. Moreover, the “LUSB 10 mg/kg” value in the data set with adult male Wistar rats turned out to be 10.0 ± 2.2. Further, the “NREM cumul. 10 mpk” value in the data set on adult male Wistar rats came to 41 ± 8. Besides, the Ki at H1 histamine receptor was 22.5 nM; at M1 muscarinic receptor [2] it was > 10000 nM; on M2 muscarinic receptor, > 10000 nM; at M3 muscarinic receptor, > 10000 nM; in data set [3], 1090 nM; in data set [4] it was > 10000 nM. For the same molecule, the Ki on human H1 receptor was 43 nM; at human 5HT2a receptor it was 396 nM; on Dopamine, D1, > 10000 nM; in data set [5] it was > 10000 nM; on 5HT2a (rat), 55.8 nM. The HERG at hERG (human, 10 µM, pH 7.4) is reported as 56.00%.
